Measured values: patent publication US6403347B1, “HIV integrase inhibitors” (Merck & Co., Inc., priority 1999, dated 2002)
Read-outs that look alike come from different tables or passages of the source.

Key:
HIV-1 integrase = HIV-1 integrase (Human immunodeficiency virus type 1 group M subtype B, UniProt P12497); assay: HIV integrase substrate cleavage (trimming of the 3′ end of HIV long terminal repeat terminus)
Experimental: HIV Integrase Substrate Cleavage
An assay for trimming of the 3′ and of HIV long terminal repeat terminus by HIV-1 integrase was conducted according to LaFemina, R. L. et al., J. Virol 10, 5624 (1991), herein incorporated by reference for these purposes. To assay inhibition of HIV integrase substrate cleavage, the reaction was conducted with inhibitor having various concentrations in the range of 0.75 to 100 μM.

HIV integrase = HIV integrase (Human immunodeficiency virus type 1 group M subtype B, UniProt P12497); assay: Strand transfer assay for HIV integrase (microtiter assay, ligation of processed donor DNA to nicked host DNA)
Experimental: Strand Transfer Assay for HIV Integrase
A microtiter assay for ligation of processed donor (HIV) DNA to unspecific, nicked host DNA was conducted according to Hazuda, D. J. et al., Nucl. […] To assay inhibition of such strand transfer by HIV integrase, the reaction was conducted with inhibition having various concentrations in the range of 0.75 to 100 μM.

CC1Oc2cc3c(-c4c(O)cc(O)c5c(O)c6c(cc45)OC(C)C(C)C6=O)c(O)cc(O)c3c(O)c2OC(=O)C1C (centres unmarked) [Compound C]
IC50 (HIV-1 integrase): 3 µM
IC50 (HIV integrase): 9 µM

Cc1oc2cc3c(-c4c(O)cc(O)c5c(O)c6c(cc45)OC(C)C(C)C6=O)c(O)cc(O)c3c(O)c2c(=O)c1C (centres unmarked) [Compound D]
IC50 (HIV-1 integrase): 1 µM
IC50 (HIV integrase): 4 µM

CC1Oc2cc3c(-c4c(O)cc(O)c5c(O)c6c(cc45)OC(C)C(C)C6=O)c(O)cc(O)c3c(O)c2C(=O)C1C (single isomer, unassigned) [Compound A]
IC50 (HIV-1 integrase): 2 µM
IC50 (HIV integrase): 12 µM

COc1cc(OC)c2c(OC)c3c(cc2c1-c1c(OC)cc(OC)c2c(OC)c4c(cc12)OC(C)C(C)C4=O)OC(C)C(C)C3=O (centres unmarked) [Compound G]
IC50 (HIV-1 integrase): 60 µM

CC1Oc2cc3c(-c4c(O)cc(O)c5c(O)c6c(cc45)OC(C)C(C)C6=O)c(O)cc(O)c3c(O)c2C(=O)C1C (single isomer, unassigned) [Compound B]
IC50 (HIV-1 integrase; inhibition of HIV integrase substrate cleavage, inhibitor concentrations 0.75 to 100 μM): 2 µM
IC50 (HIV integrase; inhibition of strand transfer by HIV integrase, concentrations 0.75 to 100 μM): 12 µM

CC(=O)Oc1cc(OC(C)=O)c2c(OC(C)=O)c3c(cc2c1-c1c(OC(C)=O)cc(OC(C)=O)c2c(OC(C)=O)c4c(cc12)OC(C)C(C)C4=O)OC(C)C(C)C3=O (centres unmarked) [E]
IC50 (HIV-1 integrase): 50 µM

COc1cc(O)c2c(OC)c3c(cc2c1-c1c(OC)cc(OC)c2c(OC)c4c(cc12)OC(C)C(C)C4=O)OC(C)C(C)C3=O (centres unmarked) [Compound F]
IC50 (HIV-1 integrase): 40 µM
